Reference: the supplement of paper PMC10307832

Assays:
Experiment in all cases: relative viability (nuclei count vs DMSO), 5 days (fraction); higher = more cells survive
17-AAG + AZD7762 = compound: C=CCNC1=C2C[C@@H](C)C[C@H](OC)[C@H](O)[C@@H](C)/C=C(\C)[C@H](OC(N)=O)[C@@H](OC)/C=C\C=C(/C)C(=O)NC(=CC1=O)C2=O [17-AAG] + NC(=O)Nc1cc(-c2cccc(F)c2)sc1C(=O)N[C@H]1CCCNC1 [AZD7762] (partner 0.2 µM)
How it was run: (§1)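 Each reported value is a median over duplicate plates. It expresses relative viability: treated-well nuclei count divided by vehicle-well nuclei count. Lung cancer cell lines in 1536-well plates were dosed by pin tool a day after seeding, alone with one drug or with a fixed anchor-drug dose plus five library-drug doses (not always all listed) in √10 steps, and nuclei were counted after 5 days.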

17-AAG + Phenformin = compound: C=CCNC1=C2C[C@@H](C)C[C@H](OC)[C@H](O)[C@@H](C)/C=C(\C)[C@H](OC(N)=O)[C@@H](OC)/C=C\C=C(/C)C(=O)NC(=CC1=O)C2=O [17-AAG] + N=C(N)NC(=N)NCCc1ccccc1 [Phenformin] (partner 250 µM)
How it was run: as §1

17-AAG + Pictilisib = compound: C=CCNC1=C2C[C@@H](C)C[C@H](OC)[C@H](O)[C@@H](C)/C=C(\C)[C@H](OC(N)=O)[C@@H](OC)/C=C\C=C(/C)C(=O)NC(=CC1=O)C2=O [17-AAG] + CS(=O)(=O)N1CCN(Cc2cc3nc(-c4cccc5[nH]ncc45)nc(N4CCOCC4)c3s2)CC1 [Pictilisib] (partner 1 µM)
How it was run: as §1

17-AAG + Alpelisib = compound: C=CCNC1=C2C[C@@H](C)C[C@H](OC)[C@H](O)[C@@H](C)/C=C(\C)[C@H](OC(N)=O)[C@@H](OC)/C=C\C=C(/C)C(=O)NC(=CC1=O)C2=O [17-AAG] + Cc1nc(NC(=O)N2CCC[C@H]2C(N)=O)sc1-c1ccnc(C(C)(C)C(F)(F)F)c1 [Alpelisib] (partner 2 µM)
How it was run: as §1

| Cell Line | relative viability (17-AAG + AZD7762; first compound 0.00128 µM) | relative viability (17-AAG + AZD7762; first compound 0.004048 µM) | relative viability (17-AAG + AZD7762; first compound 0.0128 µM) | relative viability (17-AAG + AZD7762; first compound 0.04048 µM) | relative viability (17-AAG + AZD7762; first compound 0.128 µM) | relative viability (17-AAG + Phenformin; first compound 0.00128 µM) | relative viability (17-AAG + Phenformin; first compound 0.004048 µM) | relative viability (17-AAG + Phenformin; first compound 0.0128 µM) | relative viability (17-AAG + Phenformin; first compound 0.04048 µM) | relative viability (17-AAG + Phenformin; first compound 0.128 µM) | relative viability (17-AAG + Pictilisib; first compound 0.00128 µM) | relative viability (17-AAG + Pictilisib; first compound 0.004048 µM) | relative viability (17-AAG + Pictilisib; first compound 0.0128 µM) | relative viability (17-AAG + Pictilisib; first compound 0.04048 µM) | relative viability (17-AAG + Pictilisib; first compound 0.128 µM) | relative viability (17-AAG + Alpelisib; first compound 0.00128 µM) | relative viability (17-AAG + Alpelisib; first compound 0.004048 µM) | relative viability (17-AAG + Alpelisib; first compound 0.0128 µM) | relative viability (17-AAG + Alpelisib; first compound 0.04048 µM) | relative viability (17-AAG + Alpelisib; first compound 0.128 µM) |
| --- | --- | --- | --- | --- | --- | --- | --- | --- | --- | --- | --- | --- | --- | --- | --- | --- | --- | --- | --- | --- |
| NCI-H2170 | 0.832 | 0.734 | 0.305 | 0.126 | 0.128 | 0.408 | 0.453 | 0.297 | 0.163 | 0.135 | 0.279 | 0.284 | 0.167 | 0.153 | 0.175 | 0.821 | 0.723 | 0.426 | 0.244 | 0.178 |
| NCI-H2347 | 0.891 | 0.578 | 0.472 | 0.26 | 0.22 | 0.466 | 0.38 | 0.275 | 0.187 | 0.191 | 0.671 | 0.478 | 0.508 | 0.717 | 0.43 | 1.12 | 0.961 | 1.1 | 0.565 | 0.417 |
| NCI-H2405 | 0.741 | 0.525 | 0.23 | 0.153 | 0.143 | 0.398 | 0.383 | 0.33 | 0.209 | 0.185 | 0.521 | 0.248 | 0.175 | 0.179 | 0.164 | 0.942 | 0.695 | 0.221 | 0.233 | 0.16 |
| NCI-H3122 | 0.93 | 0.873 | 0.214 | 0.161 | 0.108 | 0.396 | 0.329 | 0.129 | 0.118 | 0.117 | 0.489 | 0.375 | 0.195 | 0.194 | 0.161 | 0.687 | 0.533 | 0.198 | 0.196 | 0.173 |
| PC-3 [JPC-3] | 0.776 | 0.8 | 0.888 | 0.541 | 0.59 | 0.481 | 0.472 | 0.485 |  | 0.468 | 0.795 | 0.791 | 0.727 |  | 0.586 | 0.976 | 1.03 | 1.02 |  | 0.955 |
| PC-14 | 0.288 | 0.293 | 0.144 | 0.0832 | 0.129 | 0.449 | 0.44 | 0.126 | 0.123 | 0.109 | 0.654 | 0.219 | 0.057 | 0.067 | 0.0563 | 0.939 | 0.726 | 0.662 | 0.106 | 0.0874 |
| RERF-LC-KJ | 1 | 1.16 | 0.859 | 0.229 | 0.118 | 0.535 | 0.489 | 0.321 | 0.268 | 0.27 | 0.591 | 0.688 | 0.324 | 0.242 | 0.21 | 0.957 | 0.829 | 0.759 | 0.291 | 0.277 |
